Results: article PMC8347709 (International Journal of Molecular Sciences, 2021)
Values joined by “and” are separate entries in the source; they are usually repeats but may differ in a detail not shown here. Equal entries are not always repeated.

Tests used:
[1] = LogD7.4 by shake-flask method; format: physicochemical; settings: n-octanol/phosphate-buffered saline, n-octanol/PBS pH 7.4, room temperature
Procedure: The measurement was performed twice in triplicate.

[2] = stability of the formulated product; format: physicochemical; settings: in saline, within 24 h at room temperature
Procedure: The purification of the product was performed by semipreparative HPLC (Figure 3), followed by trapping on a Sep-Pack C18-light cartridge and elution with EtOH. For biological experiments, the solvent was evaporated under a stream of nitrogen at 70 °C until a volume of about 20–30 µL remained. The product was formulated by using 280 µL saline (0.9% aqueous NaCl). The total synthesis time was about 70 min. […] A logD7.4 of 3.15 ± 0.25 was determined by the shake flask method, which is in accordance with the calculated cLogP of 3.0 (ChemDraw Professional 19.0).

[3] = target: T1, CB2R in rat spleen tissue (Rattus norvegicus, UniProt Q9QZN9); assay: in vitro autoradiography on rat spleen cryosections; settings: 10 µm cryosections, female SPRD rats; nonspecific binding with GW405833
T1 construct: from tissue; host or cells: rat spleen cryosections (female SPRD rat)
T1 sequence (Q9QZN9 1-360): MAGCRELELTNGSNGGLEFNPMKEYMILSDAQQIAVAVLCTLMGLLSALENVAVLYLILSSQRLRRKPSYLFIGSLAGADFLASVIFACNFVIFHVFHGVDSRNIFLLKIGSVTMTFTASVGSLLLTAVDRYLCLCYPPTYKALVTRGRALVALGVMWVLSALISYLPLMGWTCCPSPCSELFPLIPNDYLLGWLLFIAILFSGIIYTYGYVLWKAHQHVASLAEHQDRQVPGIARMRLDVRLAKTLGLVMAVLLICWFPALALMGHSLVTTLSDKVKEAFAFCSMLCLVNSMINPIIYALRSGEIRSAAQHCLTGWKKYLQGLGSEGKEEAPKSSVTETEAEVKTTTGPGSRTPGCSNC
Procedure: The in vitro autoradiographic experiments were performed according to a previously published protocol. […] Afterwards, the samples were washed, exposed to imaging plates (Fuji Photo Film, Co. Ltd., Tokyo, Japan), and eventually scanned using a HD-CR 35 scanner (raytest Isotopenmessgeraete GmbH, Straubenhardt, Germany). The scan data were visualised and processed by computer-assisted microdensitometry (Aida version 2.31, raytest Isotopenmessgeräte GmbH, Straubenhardt, Germany).
Figure S1. […] Cryosections (10 µm;
(nonspecific binding; (B) for 60 min. […]

[4] = quantification of radiometabolites in vivo; settings: female CD-1 mice, 30 min p.i.
Procedure: Radiochemical yield, radiochemical purity and analyses of plasma and brain samples were assessed via reversed-phase HPLC (RP-HPLC) in gradient mode (0–10 min: 10% MeCN/20 mM NH4OAcaq., 10–30 min: 10%→90% MeCN/20 mM NH4OAcaq., 30–35 min: 90% MeCN/20 mM NH4OAcaq., 35–36 min: 90%→10% MeCN/20 mM NH4OAcaq. 36–45 min: 10% MeCN/20 mM NH4OAcaq.).
At 30 min p.i., the animals were anaesthetised and blood was withdrawn by retrobulbar bleeding using glass capillaries. Immediately afterwards, the animals were euthanised by cervical dislocation, and released urine was sampled. Blood plasma was obtained from the whole blood sample by centrifugation (2 min, 8000 rpm, room temperature). In addition, the brain and spleen were isolated and homogenised in 1 mL demineralised water on ice (1000 rpm, 10 strokes; glass vessel, PTFE plunger; Potter S, B. Braun Biotech International, Göttingen, Germany).
The samples were further processed for subsequent radio-chromatographic analyses. Two consecutive extractions were performed as duplicates for plasma and brain determinations. Plasma, brain and spleen samples were added to an ice-cold MeOH/H2O mixture (9:1, v/v). The samples were vortexed for 3 min, incubated on ice for 5 min and centrifuged at 10,000 rpm for 5 min. Supernatants were collected, and the precipitates were re-dissolved in 100 µL of extraction solvent, and the extraction procedure was repeated. The activities of supernatants and precipitates were measured in a γ-counter (1480 WIZARD, Fa. Perkin Elmer, Turku, Finland), and the extraction efficiencies were calculated as the ratio of radioactivity in the supernatant to the radioactivity in the original sample (supernatant + precipitate). The supernatants from both extractions were combined, concentrated at 70 °C under argon stream up to a remaining volume of 100 µL, and subsequently analysed by analytical radio-HPLC with a gradient system (see quality control section).

[5] = target: T2, CB2R expression in the spleen (Rattus norvegicus, UniProt Q9QZN9); assay: dynamic PET/MR of spleen uptake in healthy rats; format: in vivo, Wistar rats; settings: single blocking experiment, GW405833 1.5 mg/kg i.v. 10 min prior tracer
T2 construct: from tissue; host or cells: spleen of living male Wistar Hun rats (in vivo PET)
T2 sequence (Q9QZN9 1-360): T1 sequence (Q9QZN9 1-360)
Description: For the uptake studies into the spleen three male Wistar Hun rats (Janvier Laboratories, Le Genest Saint Isle, France) weighing 268 ± 56 g were used. For the uptake studies into the brain, five female Wistar rats weighing 263 ± 13 g carrying the stereotactically injected AAV 2/7-CaMKII0.4-intron-hCB2R D80N (right striatum) and AAV2/7-CaMKII0.4-intron-3flag-eGFP (contralateral, left striatum). Animals were initially anaesthetised with 5% isoflurane and placed on a thermostatically heated animal bed where anaesthesia was maintained with 2% isoflurane in 60% oxygen/38% room air. […] List-mode PET data were binned as a series of attenuation-corrected sinogram frames (12 × 10 s, 6 × 30 s, 5 × 60 s and 10 × 300 s) and were reconstructed by ordered subset expectation maximisation (OSEM3D) with four iterations, six subsets and a voxel size of 0.4 mm^3 (Nucline v2.01, Mediso, Hungary). […] Non-parametrical analyses of achieved time-activity curves (TACs) were performed with Microsoft Excel to determine the time to peak, the TAC peak value and the area-under-the-zero-momentum curve (AUC):(1) AUC0−tx=∫0txcradioactivity × dt where c (radioactivity) is expressed as a standardised uptake value normalised to the bodyweight in g (SUV), the area-under-first-momentum curve (AUMC):(2) AUMC0−tx=∫0txt × cradioactivity × dt and the mean residence time (MRT):(3) MRT=AUMC0−tx/AUC0−tx […]

[6] = target: hCB2R (Homo sapiens, UniProt P34972); assay: homologous competition with [18F]LU14 on hCB2R-CHO cell membrane homogenates; format: binding; parameters: host or cells: CHO cells, stably transfected
Chain of hCB2R (P34972 whole entry): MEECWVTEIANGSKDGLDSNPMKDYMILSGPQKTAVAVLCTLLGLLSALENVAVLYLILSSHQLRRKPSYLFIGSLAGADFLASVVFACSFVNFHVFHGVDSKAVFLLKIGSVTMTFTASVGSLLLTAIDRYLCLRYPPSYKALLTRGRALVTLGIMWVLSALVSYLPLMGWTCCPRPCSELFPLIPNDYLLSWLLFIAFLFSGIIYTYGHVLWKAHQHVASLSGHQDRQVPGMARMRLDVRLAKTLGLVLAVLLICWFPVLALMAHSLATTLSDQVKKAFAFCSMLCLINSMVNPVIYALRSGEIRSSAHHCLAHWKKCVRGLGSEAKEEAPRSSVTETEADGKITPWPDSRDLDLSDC
Procedure: A value of 2.9 nM was experimentally determined. Next, the in vitro evaluation by autoradiography on spleen tissue was performed (Supplementary Figure S1), as the spleen is regarded as a suitable reference organ, having high densities of CB2R (rat spleen CB2R Bmax = 0.71 pmol/mg).
The inhibition curve was obtained by non-linear regression of percent specific binding (mean ±SD; one experiment run in triplicate) plotted versus the log concentration of the test compound.

C[C@H]1CC[C@@H](NC(=O)c2cc3cccnc3n(CCCC[18F])c2=O)CC1 [[^18F]LU14]
logD [1]: 3.15 ± 0.25
decomposition of the formulated product [2]: No decomposition
specific binding in spleen autoradiography [3]: no or low specific binding
intact tracer in spleen (of the total activity detected) [4]: 50 ± 10%
intact tracer in the brain [4]: 82 ± 5% and > 80% and 82%
unchanged tracer in plasma ([4]; radio-HPLC): 17 ± 2% and 17%
AUC0–60min in the spleen, blocking versus control [5]: comparable
Kd [6]: 2.9 nM
